What was measured:
[1] = Stable non-aqueous ACC HCl salt formulation (solubility, stability at 5° C.); assay type: physicochemical; details: 13.6% ACC HCl salt, 84.4% propylene glycol, 2% Tween 20
Procedure: A formulation was prepared containing 13.6% ACC HCl salt, 84.4% propylene glycol and 2% Tween® 20.
Further, non-aqueous formulations of the present invention remained stable when placed at 5° C. Thus, specific non-aqueous formulations can stabilize ACC HCl salt.

[2] = Chemical stability of ACC HCl in select non-aqueous solvents, 54 C, 3 weeks; assay type: physicochemical; details: for ACC HCl 3 weeks / ACC HCl % loss: 54 C, 3 weeks; for ACC HCl Initial: time 0
Procedure: Formulations were prepared with 14% w/w initial concentration of ACC HCl and […] Tween® 20 in each of the following solvents: 1,3 propanediol; ethylene glycol; diethylene glycol; dimethyl lactamide; and N-methyl pyrrolidone. Each formulation was then stored at 54 C for 3 weeks, which is the equivalent of storage for 3 years at room temperature. ACC HCl salt concentration was measured at time 0 and at 3 weeks.

[3] = Titration of ACC HCl salt solutions; assay type: physicochemical
Procedure: When ACC HCl salt was added to water to a concentration of 10% w/w ACC the pH was determined to be 1.0±0.3. The solution was then titrated with each of sodium hydroxide, N,N dimethyl ethanolamine, triethanolamine, choline hydroxide, ammonium hydroxide dimethyl amine, and triethyl tetramine to achieve more basic solutions.
Thus, ACC HCl salt solutions are inherently unstable at a pH range of 2.75 to 8.5.

cotton cotyledons = assay: Cotton cotyledon bioefficacy assay: effect of solution pH and ACC form on ethylene production; details: for Ethylene Production: 250 ppm, 48 hours after spray
[4] = Chemical stability of ACC HCl in select non-aqueous solvents, 5 or 54 C, 2 weeks; assay type: physicochemical; details: for % loss / ACC HCl 5 C., 2 weeks / ACC HCl 54 C., 2 weeks: 2 weeks; for ACC HCl Initial: time 0
Procedure: Formulations were prepared with 14% w/w initial concentration of ACC HCl and 2.5% w/w Tween® 20 in each of the following solvents: polyethylene glycol and propylene glycol. Each formulation was then stored at 5 or 54 C for 2 weeks, which is the equivalent of storage for 2 years at room temperature. ACC HCl salt concentration was measured at time 0 and at 2 weeks.

[5] = Non-aqueous solvent screening (solubility of ACC HCl); assay type: physicochemical; details: about 21° C.
Procedure: ACC HCl salt was added at 1-gram increments to 1 liter of each of the solvents in Table 1 at about 21° C. while stirring until the salt would no longer solubilize.

Gala apple = assay: Apple fruitlet thinning assay; assay type: in vivo
Procedure: Formulations 1-3 were diluted with water to 408 ppm ACC HCl salt (i.e. molar equivalent to 300 ppm ACC free acid) and applied to Gala apple fruit when mean fruit diameter was 20 mm along with ACC free acid at 300 ppm. The apple plants were allowed to reach fruit set and set fruits were counted and compared to an untreated control. Fruit set was calculated as the number of fruits which set on a sample of 100 flower clusters.

[6] = Surfactant screening for stable ACC HCl salt solutions (titration with potassium hydroxide); assay type: physicochemical; details: addition at about 0.5% w/w
Procedure: The solution was then titrated with potassium hydroxide to achieve a more basic solution. Due to the exothermic nature of the titration process, titration occurred in a water bath maintained at a temperature of 20° C.±5° C.

[7] = Diethylene glycol with Tween 20
[8] = Dimethyl lactamide with Tween 20
[9] = N-methyl pyrrolidone with Tween 20
[10] = Polyethylene glycol with 2.5% w/w Tween 20, 5 C
[11] = Polyethylene glycol with 2.5% w/w Tween 20, 54 C
[12] = Propylene glycol with 2.5% w/w Tween 20, 5 C
[13] = Propylene glycol with 2.5% w/w Tween 20, 54 C

Cl.NC1(C(=O)O)CC1 [ACC HCl, 1-amino-1-cyclopropanecarboxylic acid hydrochloride salt]
solubility in non-aqueous solvents [1]: soluble | ACC HCl 3 weeks ([2]; 1,3 propanediol with Tween 20): 13.9 % w/w | ACC HCl % loss ([2]; 1,3 propanediol with Tween 20): 1.7 % loss | ACC HCl Initial ([2]; 1,3 propanediol with Tween 20): 14.14 % w/w | ACC HCl 3 weeks [2, 7]: 13.8 % w/w | ACC HCl % loss [2, 7]: 1.4 % loss | ACC HCl Initial [2, 7]: ~14% w/w | ACC HCl 3 weeks [2, 8]: 13.5 % w/w | ACC HCl % loss [2, 8]: 2.9 % loss | ACC HCl Initial [2, 8]: 13.9 % w/w | ACC HCl 3 weeks ([2]; Ethylene glycol with Tween 20): 13.6 % w/w | ACC HCl % loss ([2]; Ethylene glycol with Tween 20): 2.9 % loss | ACC HCl Initial ([2]; Ethylene glycol with Tween 20): 14.0 % w/w | ACC HCl 3 weeks [2, 9]: 13.9 % w/w | ACC HCl % loss [2, 9]: 0.7 % loss | ACC HCl Initial [2, 9]: 14.0 % w/w | pH of solution ([3]; ACC HCl salt added to water to 10% w/w ACC): 1.0±0.3 | pH at which all precipitates dissolve into solution ([3]; further titration with base): above 9.0 | Ethylene Production (cotton cotyledons; solution pH 2.5): 26.9 nL/g FW/hr | Ethylene Production (cotton cotyledons; solution pH 5.0): 16.5 nL/g FW/hr | more ethylene generated at pH 2.5 than at pH 5.0 (cotton cotyledons; same solution, pH 2.5 vs pH 5.0): 65% | % loss [4, 10]: −0.3% | ACC HCl 5 C., 2 weeks [4, 10]: 14.20 % w/w | % loss [4, 11]: 2.5% | ACC HCl 54 C., 2 weeks [4, 11]: 13.81 % w/w | ACC HCl Initial ([4]; Polyethylene glycol with 2.5% w/w Tween 20): 14.16 % w/w | % loss [4, 12]: 0% | ACC HCl 5 C., 2 weeks [4, 12]: 14.10 % w/w | % loss [4, 13]: 6.7% | ACC HCl 54 C., 2 weeks [4, 13]: 13.15 % w/w | ACC HCl Initial ([4]; Propylene glycol with 2.5% w/w Tween 20): 14.10 % w/w | Measured Solubility of ACC HCl ([5]; 1,3-propane diol): 25 % w/w | Measured Solubility of ACC HCl ([5]; Diethylene glycol monomethyl ether): 14 % w/w | Measured Solubility of ACC HCl ([5]; Diethylene glycol): 25 % w/w | Measured Solubility of ACC HCl ([5]; Dimethyl lactamide): 20 % w/w | Measured Solubility of ACC HCl ([5]; Dipropylene glycol): 8 % w/w | Measured Solubility of ACC HCl ([5]; Ethyl lactate): 14 % w/w | Measured Solubility of ACC HCl ([5]; Ethylene glycol): 34 % w/w | Measured Solubility of ACC HCl ([5]; Fatty alcohol ethoxylate): 14 % w/w | Measured Solubility of ACC HCl ([5]; Glycerin): 14 % w/w | Measured Solubility of ACC HCl ([5]; Monoacetin): 14 % w/w | Measured Solubility of ACC HCl ([5]; N-methyl-2-pyrrolidinone): 20 % w/w | Measured Solubility of ACC HCl ([5]; Polyethylene glycol 200): 21 % w/w | Measured Solubility of ACC HCl ([5]; Polyethylene glycol 400): 14 % w/w | Measured Solubility of ACC HCl ([5]; Polyethylene glycol 600): 14 % w/w | Measured Solubility of ACC HCl ([5]; Polypropylene glycol): 14 % w/w | Measured Solubility of ACC HCl ([5]; Propylene carbonate): <2 % w/w | Measured Solubility of ACC HCl ([5]; Propylene glycol): 27 % w/w | Measured Solubility of ACC HCl ([5]; The ester of 2-ethyl hexanol and natural lactic acid): 14 % w/w

NC1(C(=O)O)CC1 [ACC free acid, 1-amino-1-cyclopropanecarboxylic acid]
Fruit set (Gala apple; 408 ppm ACC HCl salt (formulations) or 300 ppm ACC free acid, mean fruit diameter 20 mm): 70 fruit/100 flower clusters | reduction of fruit set (Gala apple; compared to untreated control): 20% | Ethylene Production (cotton cotyledons; solution pH 2.5): 31.1 nL/g FW/hr | Ethylene Production (cotton cotyledons; solution pH 5.0): 13.4 nL/g FW/hr

O=C(O)CN(CCN(CC(=O)O)CC(=O)O)CC(=O)O [EDTA, ethylenediaminetetraacetic acid]
solution stability of ACC HCl salt solution [6]: further enhanced solution stability

From patent US11350630B2, “1-amino-1-cyclopropanecarboxylic acid hydrochloride formulations” (Valent BioSciences LLC, priority 2017, dated 2022)
